Assay results as given in patent publication US10544113B2 (priority 2016, dated 2020).
“Also recorded” adds a separate entry of the source. Where two headings read alike, the source gives them in different places.

Target: mu-opioid receptor (MOR) (Homo sapiens (Human), UniProt P35372)
Assay: cell-based

Sequence of mu-opioid receptor (MOR) (P35372 whole entry): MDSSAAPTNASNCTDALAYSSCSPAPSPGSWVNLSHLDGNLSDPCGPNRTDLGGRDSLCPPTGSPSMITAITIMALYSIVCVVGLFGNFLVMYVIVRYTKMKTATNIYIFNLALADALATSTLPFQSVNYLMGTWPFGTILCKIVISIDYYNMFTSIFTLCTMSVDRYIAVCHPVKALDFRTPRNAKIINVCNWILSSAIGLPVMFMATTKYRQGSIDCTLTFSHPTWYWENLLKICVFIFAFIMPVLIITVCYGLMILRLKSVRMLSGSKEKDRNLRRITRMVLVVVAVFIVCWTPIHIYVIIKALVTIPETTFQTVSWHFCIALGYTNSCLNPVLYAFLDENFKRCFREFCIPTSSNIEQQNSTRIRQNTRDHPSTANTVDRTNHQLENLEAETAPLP

Structure (SMILES): Cc1cc(C(=O)O)ccc1N1C(=O)CSC1c1ccc(F)cc1 (centres unmarked)
- EC50 (co-administrated with naloxone (20 nM), read-out: EC50 of calcium release): 1.3 µM
- activity combined with peptide MOR antagonist CTOP (combination with CTOP): no activity was observed
- AUC (combined with Cyprodime hydrochloride 500 nM): 7893
- EC50 (combined with Cyprodime hydrochloride 500 nM, read-out: EC50): 5.12 ± 2.52 µM
- AUC (combined with Nalmefene 20 nM): 8506
- AUC (combined with Naloxonazine dihydrochloride 20 nM): 11819.33
- EC50 (combined with Naloxonazine dihydrochloride 20 nM, read-out: EC50): 0.642 µM
- AUC (combined with Naltrexone 20 nM): 12980.33
- EC50 (combined with Naltrexone 20 nM, read-out: EC50): 0.63 ± 0.217 µM
- AUC (combined with Samidorphan 10 nM): 13179
- EC50 (combined with Samidorphan 10 nM, read-out: EC50): 5.53 µM
- AUC (combined with Samidorphan 20 nM): 14094
- EC50 (combined with Samidorphan 20 nM, read-out: EC50): 5.27 µM
- FLIPR Ca^2+ AUC (combined with a MOR antagonist): 16361
- EC50 (combined with a MOR antagonist, read-out: FLIPR Ca^2+ EC50): 1.1 µM
- AAM effect with naltrexone (combined with naltrexone, compared with naloxone): worked as an AAM of naltrexone, with similar potency but a higher magnitude of efficacy
- calcium release in the presence of an opioid antagonist (combined with one of the listed opioid antagonists): induced significant calcium release
- AUC (combined with β-Funaltrexamine hydrochloride 20 nM): 8553.5
- EC50 (combined with β-Funaltrexamine hydrochloride 20 nM, read-out: EC50): 0.346 ± 0.209 µM
- response on its own (calcium release) (compound alone, no antagonist): did not show responses on their own; also recorded: did not elicit any response on its own
- effect on Emax and potency of morphine (PAM/NAM test) (morphine CRC with compound at 30, 10, 3.3 μM): neither Emax nor potency of morphine was significantly altered
- calcium release in the presence of naloxone (naloxone (25 nM)): induced a significant calcium release
- effect on concentration-response curve of naloxone (Emax, potency) (naloxone CRC with compound at different concentrations): both Emax and potency of naloxone were altered
